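The compound was tested at five concentrations on cells cultured in 96-well plates, with a 48-hour exposure period. At the GI50, growth is halved. TGI: total growth inhibition.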
Legend:
Test in all cases: NCI-60 cell line screen, 48 h
DU-145 prostate = test system: DU-145 prostate
HS 578T breast = test system: HS 578T breast
MCF7 breast = test system: MCF7 breast
NCI-H23 lung = test system: NCI-H23 lung
OVCAR-3 ovarian = test system: OVCAR-3 ovarian
RPMI-8226 leukemia = test system: RPMI-8226 leukemia
SF-268 CNS = test system: SF-268 CNS
SF-295 CNS = test system: SF-295 CNS
SNB-75 CNS = test system: SNB-75 CNS
T-47D breast = test system: T-47D breast

| Structure (SMILES) | TGI (DU-145 prostate) [µM] | TGI (HS 578T breast) [µM] | TGI (MCF7 breast) [µM] | TGI (NCI-H23 lung) [µM] | TGI (OVCAR-3 ovarian) [µM] | TGI (RPMI-8226 leukemia) [µM] | TGI (SF-268 CNS) [µM] | TGI (SF-295 CNS) [µM] | TGI (SNB-75 CNS) [µM] | TGI (T-47D breast) [µM] | GI50 (DU-145 prostate) [µM] | GI50 (HS 578T breast) [µM] | GI50 (MCF7 breast) [µM] | GI50 (NCI-H23 lung) [µM] | GI50 (OVCAR-3 ovarian) [µM] | GI50 (RPMI-8226 leukemia) [µM] | GI50 (SF-268 CNS) [µM] | GI50 (SF-295 CNS) [µM] | GI50 (SNB-75 CNS) [µM] | GI50 (T-47D breast) [µM] |
| --- | --- | --- | --- | --- | --- | --- | --- | --- | --- | --- | --- | --- | --- | --- | --- | --- | --- | --- | --- | --- |
| O=c1c2ccccc2nc(-c2cccc([N+](=O)[O-])c2)n1O | > 100 | > 100 | > 100 | > 100 | > 94.3 | > 33.7 | > 100 | > 100 | > 100 | > 100 | – | – | – | – | – | – | – | – | – | – |
| Nc1ccc(/C=C/c2ccc3ncccc3c2)cc1 | > 100 | > 100 | > 100 | > 100 | > 100 | > 100 | > 100 | > 100 | > 100 | > 100 | > 100 | > 100 | > 100 | > 100 | > 100 | 6.89 | > 100 | 70.3 | 37.1 | > 100 |
| C=C(CO)C(=O)OC1CC(=C)C2CC(O)C(C)C2C2OC(=O)C(=C)C12 (stereo unspecified) | > 100 | 47.5 | 34.3 | > 100 | 34.2 | 58.1 | 39.4 | 38.8 | 45.6 | > 100 | – | – | – | – | – | – | – | – | – | – |
| CN1CCN(Cc2ccc(NC(=O)c3cncc(C#Cc4cnc(N)c5ncccc45)c3)cc2C(F)(F)F)CC1 | 7.33 | 1.68 | 2.92 | 6.26 | 4.88 | 8.2 | 2.95 | 15.5 | 1.48 | 39.1 | 0.37 | 0.213 | 0.723 | 0.284 | 0.781 | 0.401 | 0.511 | 0.55 | 0.391 | 2.52 |
| N#CC1=C(N)Oc2c(sc3c(Br)cccc23)C1c1ccc([N+](=O)[O-])cc1 (stereo unspecified) | 9.26 | 16.4 | 11.6 | 13.2 | 0.849 | 6.49 | 10.7 | 11.1 | 8.41 | 25.3 | 0.14 | 0.0774 | 0.151 | 0.131 | 0.0403 | 0.116 | 0.547 | 0.0417 | 0.0595 | 0.84 |
| COc1cc2cc(NCc3cccc(Cl)c3)nc(C)c2cc1OC | 20.9 | 56.7 | 23 | 13.9 | 16.3 | 23.4 | 23.9 | 16.8 | 19.4 | 9.31 | 5.41 | 4.87 | 4.72 | 0.913 | 3.72 | 0.539 | 2.97 | 0.513 | 2.83 | 0.459 |
| O=c1[nH]c2ccccc2n1C1CCNCC1 | > 100 | > 100 | > 100 | > 100 | > 100 | > 100 | > 100 | > 100 | > 100 | > 100 | > 100 | > 100 | > 100 | > 100 | > 100 | > 100 | > 100 | > 100 | > 100 | > 100 |
| COc1cc2c(c3oc(-c4ccc(O)cc4)c(O)c(=O)c13)CCC(C)(C)O2 | > 44.9 | – | > 100 | 0.221 | 27.4 | 0.787 | – | 0.194 | 0.283 | – | 0.295 | 0.0903 | 0.381 | 0.0836 | 0.431 | 0.305 | 0.122 | 0.0426 | 0.103 | 0.767 |
| O=P1(NCCCl)OCCCN1CCCl (stereo unspecified) | > 500 | > 500 | 388 | 454 | 422 | 428 | 426 | 429 | 435 | > 500 | – | – | – | – | – | – | – | – | – | – |
| COC(=O)N[C@H]1CCc2cc(OC)c(OC)c(OC)c2-c2ccc(SC)c(=O)cc21 | > 100 | > 100 | > 100 | > 100 | – | > 64.5 | > 100 | 27.1 | > 100 | > 100 | < 0.01 | < 0.01 | < 0.01 | < 0.01 | < 0.01 | < 0.01 | < 0.01 | < 0.01 | < 0.01 | > 100 |
| CCN(Cc1ccc(OC)cc1)c1ccc(CO)c(Cl)c1 | > 100 | > 86.1 | 15.7 | 60 | 6.19 | 46.1 | > 100 | 31.5 | 45.6 | 0.589 | 25.6 | 22.1 | 0.163 | 13.7 | 0.636 | 6.23 | 29.1 | 1.31 | 13.9 | 0.115 |

Reference: PubChem BioAssay (NCI)
